Six compounds from ChEMBL document CHEMBL3259619, “Antibacterial activity of a series of N2,N4-disubstituted quinazoline-2,4-diamines” (J Med Chem, 2014) can be followed below.

Converted amounts (≈) assume the structure as drawn. The source made the active and inactive calls. Unless noted, the rule behind the calls is not given here.

One data set has as its system Legionella pneumophila. In words: Antimicrobial activity against Legionella pneumophila. It counts as functional.
Another data set relates to Listeria monocytogenes. The data set can be described thus: Antimicrobial activity against Listeria monocytogenes. Format: functional.
Another data set concerns Staphylococcus. The data set can be described thus: Antibacterial activity against Staphylococcus. It counts as functional.
The test system of the next data set is Moraxella catarrhalis. The data set can be described thus: Antimicrobial activity against Moraxella catarrhalis. Format: functional.
In the next data set the test system is Enterococcus. The data set can be described thus: Antibacterial activity against Enterococcus. It counts as functional.
For the next data set, the system named is Neisseria sp. In words: Antimicrobial activity against Neisseria species. It counts as functional.
Another data set relates to Streptococcus. In words: Antibacterial activity against Streptococcus. Format: functional.
In another data set the test system is Haemophilus influenzae. The data set can be described thus: Antimicrobial activity against Haemophilus influenzae. It counts as functional.
For data set [1], the system named is Staphylococcus aureus. The data set can be described thus: Antibacterial activity against methicillin-resistant Staphylococcus aureus SA-1417 infected in mouse assessed as protection of mouse. Format: functional. The following applies: read-out: PD50.
In data set [2] the test system is Staphylococcus aureus. The data set can be described thus: Antimicrobial activity against Staphylococcus aureus infected Galleria mellonella assessed as increase in larvae survival at 5 times MIC. It counts as functional.
Data set [3] deals with Staphylococcus aureus. In words: Antimicrobial activity against Staphylococcus aureus infected Galleria mellonella assessed as increase in larvae survival at 10 times MIC. It counts as functional.
A short description of data set [4]: Cytotoxicity against human A549 cells assessed as cell viability recovery at 440 uM by MTT assay relative to untreated control. The following applies: read-out: Activity. Format: cell-based.
Data set [5] is described as follows: Aqueous solubility of the compound at pH 7.4 after 18 hrs incubation by HPLC. Format: physicochemical.
Data set [6] can be described thus: Cytotoxicity against human A549 cells assessed as cell viability recovery at 18 uM by MTT assay relative to untreated control. Format: cell-based. The following applies: read-out: Activity.
Data set [7] can be described thus: Aqueous solubility of the compound at pH 2 after 18 hrs incubation by HPLC. It counts as physicochemical.
For data set [8], the system named is Staphylococcus aureus. The data set can be described thus: Antimicrobial activity against methicillin-resistant Staphylococcus aureus CBD-635 assessed as complete inhibition of bacterial growth at 5 times MIC after overnight incubation in presence of tetrahydrofolic acid. It counts as functional, organism-based.
Data set [9] in a line: Cytotoxicity against human A549 cells assessed as cell viability recovery up to 440 uM by MTT assay relative to untreated control. Format: cell-based. The following applies: read-out: Activity.
The subject of data set [10] is Staphylococcus aureus. In words: Antimicrobial activity against wild type Staphylococcus aureus in presence of sulfamethoxazole. Format: functional.
Data set [11] can be described thus: Lipophilicity, log D of the compound at pH 3. Format: physicochemical. The following applies: buffer.
Data set [12] relates to Staphylococcus aureus. In words: Antimicrobial activity against trimethoprim-resistant Staphylococcus aureus assessed as complete inhibition of bacterial growth after 24 hrs. Format: functional, organism-based.
The conditions of data set [13]: pampa, pH 7.4.
For data set [14] the following is noted: pampa, pH 4.
In data set [15] the test system is Staphylococcus aureus. The data set can be described thus: Antimicrobial activity against methicillin-resistant Staphylococcus aureus CBD-635 assessed as complete inhibition of bacterial growth after overnight incubation. Format: functional.
Data set [16] in a line: Cytotoxicity against human A549 cells assessed as cell viability recovery at 1.8 to 8.8 uM by MTT assay relative to untreated control. Format: cell-based. The following applies: read-out: Activity.
Data set [17] relates to Staphylococcus aureus. In words: Antimicrobial activity against quinazoline-resistant Staphylococcus aureus assessed as complete inhibition of bacterial growth after 24 hrs. It counts as functional, organism-based.
Data set [18] has as its system Staphylococcus aureus. The data set can be described thus: Bactericidal activity against methicillin-resistant Staphylococcus aureus CBD-635 assessed as bacterial killing. Format: functional.
Data set [19] has as its system Staphylococcus aureus. The data set can be described thus: Antimicrobial activity against methicillin-resistant Staphylococcus aureus CBD-635 assessed as zone of inhibition at 5 mg/ml after 24 hrs by disk diffusion assay. It counts as functional. The following applies: CBD-635, 24 h, read-out: IZ.
Data set [20] can be described thus: Lipophilicity, log D of the compound at pH 7.4. The following applies: buffer. It counts as physicochemical.
In data set [21] the test system is Staphylococcus aureus. In words: Antimicrobial activity against wild type Staphylococcus aureus. Format: functional.
The test system of the next data set is Escherichia coli. In words: Antimicrobial activity against Escherichia coli. Format: functional.
In data set [22] the test system is Staphylococcus aureus. The data set can be described thus: Antimicrobial activity against Staphylococcus aureus. Format: functional, organism-based.
Data set [23] has as its system Klebsiella pneumoniae. In words: Antimicrobial activity against Klebsiella pneumoniae infected in mouse assessed as survival rate at 100 mg/kg. Format: functional.
Data set [24] has as its system Klebsiella pneumoniae. In words: Antimicrobial activity against Klebsiella pneumoniae. It counts as functional.
In data set [25] the test system is Staphylococcus aureus. In words: Antimicrobial activity against Staphylococcus aureus infected in mouse assessed as increase in mouse survival at 5 times MIC via tail vein relative to untreated control. Format: functional.
Data set [26] in a line: Cytotoxicity against human A549 cells assessed as cell viability recovery up to 407 uM by MTT assay relative to untreated control. It counts as cell-based. The following applies: read-out: Activity.
Data set [27] can be described thus: Cytotoxicity against human A549 cells assessed as cell viability recovery at 1.6 to 16 uM by MTT assay relative to untreated control. The following applies: read-out: Activity. Format: cell-based.
The nature of data set [28]: Cytotoxicity against human A549 cells assessed as cell viability recovery at 41 to 410 uM by MTT assay relative to untreated control. Format: cell-based. The following applies: read-out: Activity.
Data set [29] has as its system Staphylococcus aureus. The data set can be described thus: Antimicrobial activity against N2,N4-dibenzylquinazoline-2,4-diamine-induced methicillin-resistant Staphylococcus aureus CBD-635 mutant M2 assessed as complete inhibition of bacterial growth after overnight incubation. Format: functional.
Data set [30] concerns Staphylococcus aureus. In words: Antimicrobial activity against N2,N4-dibenzylquinazoline-2,4-diamine-induced methicillin-resistant Staphylococcus aureus CBD-635 mutant M1 assessed as complete inhibition of bacterial growth after overnight incubation. It counts as functional.

`Cc1c(N2CC[C@@H]([C@H](C)N)C2)c(F)cc2c(=O)[nH]c(=O)n(C3CC3)c12`: the MIC90 came out at 0.5 µg/mL (≈ 1.44 µM) in the data set on Legionella pneumophila; 0.5 µg/mL (≈ 1.44 µM) against Listeria monocytogenes; 0.5 µg/mL (≈ 1.44 µM) with Staphylococcus; 0.5 µg/mL (≈ 1.44 µM) in the data set on Moraxella catarrhalis; 0.5 µg/mL (≈ 1.44 µM) with Neisseria sp.; 0.06 µg/mL (≈ 0.173 µM) against Streptococcus. In addition, the MIC90 in the data set on Haemophilus influenzae stood at 0.5 µg/mL (≈ 1.44 µM). The compound further gave an MIC in the data set with Enterococcus of 2 µg/mL (≈ 5.77 µM). Besides, in the data set with Staphylococcus aureus [1], the ED50 is 2.5 mg/kg.
In the case of `CC(C)Nc1nc(NC2CCCCC2)c2ccccc2n1`, the Survival turned out to be 40% with Staphylococcus aureus [2] and 70% in the data set with Staphylococcus aureus [3]. Besides, the viability at 440 µM in data set [4] came to 70.3%. Moreover, the values for the solubility at 18 h in [5] and in [7] were not above 30 µM and not below 30 µM, respectively. In addition, the viability at 18 µM in data set [6] stood at 98.6%. Moreover, in the data set with Staphylococcus aureus [8], the inhibition result was “inactive”. Also, in data set [9], the viability is more than 60%. In addition, in the data set with Staphylococcus aureus [10], the “fractional inhibitory concentration index (FICI)” value was determined as 0.1. In addition, the logD in [11] was 3.56; in [20] it was 4.69. The inhibition entry in the data set with Staphylococcus aureus [12] and in the data set with Staphylococcus aureus [17] was “Active” in each case. In addition, the figures for the permeability in data set [13] and in data set [14] were 783 ×10⁻⁶ cm/s and 112 ×10⁻⁶ cm/s, respectively. The MIC in the data set with Staphylococcus aureus [15] is 3.5 µM (≈ 0.995 µg/mL). Further, the viability at up to 8.8 µM in [16] was more than 100%. The MBC50 with Staphylococcus aureus [18] is 8.8 µM (≈ 2.5 µg/mL). Moreover, in the data set with Staphylococcus aureus [19], the zone of inhibition at 5000 µg/mL turned out to be 13 mm.
Consider `Cc1cc(NS(=O)(=O)c2ccc(N)cc2)no1` [SULFAMETHOXAZOLE], for which the MIC against Staphylococcus aureus [21] was 2400 µM (≈ 608 µg/mL).
Regarding `COc1cc2nc(N3CCC(Nc4ccc(C(=O)O)cc4)CC3)nc(N)c2cc1OC`, the MIC against Escherichia coli turned out to be 2 µM (≈ 0.847 µg/mL); in the data set on Staphylococcus aureus [22], 12 µM (≈ 5.08 µg/mL); in the data set with Klebsiella pneumoniae [24], 12 µM (≈ 5.08 µg/mL). For the same compound, the survival at 100 mg/kg in the data set with Klebsiella pneumoniae [23] turned out to be 40%.
For `CCCCNc1nc(NCc2ccccc2)c2ccccc2n1`, the Survival is 69% with Staphylococcus aureus [25], 40% in the data set on Staphylococcus aureus [2] and 70% in the data set with Staphylococcus aureus [3]. Also, the solubility at 18 h in data set [5] is not above 20 µM; in data set [7], not below 30 µM. Further, in data set [26], the viability was more than 60%. In addition, the viability at up to 16 µM in data set [27] was more than 100%. Further, the viability at up to 410 µM in data set [28] is more than 95%. In addition, in the data set on Staphylococcus aureus [8], the inhibition entry was “inactive”. Also, the “fractional inhibitory concentration index (FICI)” value in the data set on Staphylococcus aureus [10] stood at 0.11. Moreover, the logD in [11] turned out to be 2.84; in [20] it was 3.8. The inhibition result in the data set with Staphylococcus aureus [12] and in the data set on Staphylococcus aureus [17] was “Active” throughout. In addition, the permeability in data set [13] was found to be 1250 ×10⁻⁶ cm/s; in [14], 161 ×10⁻⁶ cm/s. Besides, the minimal inhibitory concentration (MIC) with Staphylococcus aureus [15] was 3.3 µM (≈ 1.01 µg/mL). For the same compound, the MBC50 with Staphylococcus aureus [18] is 0.98 µM (≈ 0.3 µg/mL). Also, in the data set with Staphylococcus aureus [19], the zone of inhibition at 5000 µg/mL stood at 12 mm.
Take `Clc1ccc(CNc2nc(NCc3ccc(Cl)cc3)c3ccccc3n2)cc1`: the MIC in the data set on Staphylococcus aureus [29], in the data set on Staphylococcus aureus [15] and with Staphylococcus aureus [30] was 2.4 µM (≈ 0.982 µg/mL) throughout. Also, the Survival in the data set on Staphylococcus aureus [2] amounted to 50%; with Staphylococcus aureus [3], 60%. Further, the inhibition result in the data set on Staphylococcus aureus [8] was “inactive”. For the same compound, in the data set on Staphylococcus aureus [10], the “fractional inhibitory concentration index (FICI)” value was found to be 0.12. For the same compound, the inhibition result with Staphylococcus aureus [12] and in the data set on Staphylococcus aureus [17] was “Active” in each case. Further, the MBC50 in the data set on Staphylococcus aureus [18] came out at 7.2 µM (≈ 2.95 µg/mL).
